Experimental data taken from patent US11793845B2, “Composition for ameliorating peripheral sensory neuropathy” (KINKI UNIVERSITY, priority 2016, dated 2023).

Columns and labels:
[1] = tested on: Peripheral Sensory Neuropathy Induced by Vincristine in Mice; test: von Frey test, vincristine-induced peripheral sensory neuropathy; format: in vivo; settings: vincristine 0.2 mg/kg once a week alone, compared with control group; three days after the administration
Text: The mice in the three groups in the above (1) were put in a cage and a filament having a strength of 0.16 g was pressed on the plantar surface of the leg to measure the number of times (a score) of avoidance response.
In the present test, the mice were divided into three groups by a difference in test objects. As in Example 1, male Balb/c mice of 6 to 7 weeks old were used. The mice were divided into a total of three groups, a control group, a vincristine administration group, and a vincristine and Lentinus edodes mycelium extract administration group (vincristine+Lentinus edodes mycelium extract administration group).
(§1) Vincristine was administered to each mouse once a day at a dose of 0.2 mg/kg. Further, the Lentinus edodes mycelium extract was administered to each mouse once a day at a dose of 2 g/kg.
Further, the number of times of administration was set to once a week (on Day 0, Day 7, and Day 14) for vincristine and daily (from Day 0 to Day 15) for the Lentinus edodes mycelium extract in both the von Frey test and the cold plate test below.
Evaluation was performed in the same manner as in the test with oxaliplatin in Example 1. Referring to FIG. 5, the horizontal axis indicates an elapsed time after administration (days) and the vertical axis indicates the avoidance response (scores). Open circles with a solid line represent the control group. Filled circles with a solid line represent the group in which only vincristine was administered. Open squares with a dash line represent the group in which vincristine and the Lentinus edodes mycelium extract were administered at the same time (vincristine+Lentinus edodes mycelium extract administration group). When the difference with the control group was determined to be significant using a significance level of 5%, the data were marked by “*”.
(§2) In the present test, the mice were divided into six groups by a difference in test objects. As in Example 1, male Balb/c mice of 6 to 7 weeks old were used. […]

[2] = tested on: Peripheral Sensory Neuropathy Induced by Vincristine in Mice; test: cold plate test, vincristine-induced peripheral sensory neuropathy; format: in vivo; settings: vincristine 0.2 mg/kg once a day alone; Day 3
Experimental: The effect of the Lentinus edodes mycelium extract on the paresthesia to cold stimulation was tested by performing the cold plate test. The mice in the three groups in the above (1) were put on a cold plate set to 10° C. and a response time for avoidance (a latency) was measured. The shorter latency means that the mouse avoids the cold stimulation of the cold plate more.
In the present test, the mice were divided into three groups by a difference in test objects. As in Example 1, male Balb/c mice of 6 to 7 weeks old were used. The mice were divided into a total of three groups, a control group, a vincristine
administration group, and a vincristine and Lentinus edodes mycelium extract administration group (vincristine+Lentinus edodes mycelium extract administration group).
as §1
Evaluation was performed in the same manner as in the test with oxaliplatin in Example 1. Referring to FIG. 6, the horizontal axis indicates the elapsed time after administration (days) and the vertical axis indicates the avoidance response time (seconds). Open circles with a solid line represent the control group. Filled circles with a solid line represent the group in which only vincristine was administered. Open squares with a dash line represent the group in which vincristine and the Lentinus edodes mycelium extract were administered at the same time (vincristine+Lentinus edodes mycelium extract administration group). When the difference with the control group was determined to be significant using a significance level of 5%, the data were marked by “*”.
as §2

With `CC[C@]1(O)C[C@H]2CN(CCc3c([nH]c4ccccc34)[C@@](C(=O)OC)(c3cc4c(cc3OC)N(C=O)[C@H]3[C@@](O)(C(=O)OC)[C@H](OC(C)=O)[C@]5(CC)C=CCN6CC[C@]43[C@@H]65)C2)C1` [vincristine] the “avoidance response (scores), von Frey test” value [1] was “significantly increased” and the “latency to the cold stimulation (avoidance response time), cold plate test” value [2] was “significantly reduced”.
